Assays:
CSF1R [1] = molecular target: T1, CSF1R (Homo sapiens, UniProt P07333); test: Competition binding assay, CSF1R Kd; set-up: made in house; conditions: competition binding
Method in brief: (§1)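 Kinases as T7-phage fusions or HEK-293-expressed DNA-tagged constructs competed against immobilized biotinylated ligand on streptavidin beads, 1 h at room temperature in binding buffer. Bound kinase eluted and quantified by qPCR; Kd from eleven-point threefold dilution series.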

PDGFRβ = molecular target: T2, PDGFRβ (Homo sapiens, UniProt P09619); test: Competition binding assay, PDGFRβ Kd; conditions: competition binding
T2 construct: made in house
T2 sequence (P09619 33-1106): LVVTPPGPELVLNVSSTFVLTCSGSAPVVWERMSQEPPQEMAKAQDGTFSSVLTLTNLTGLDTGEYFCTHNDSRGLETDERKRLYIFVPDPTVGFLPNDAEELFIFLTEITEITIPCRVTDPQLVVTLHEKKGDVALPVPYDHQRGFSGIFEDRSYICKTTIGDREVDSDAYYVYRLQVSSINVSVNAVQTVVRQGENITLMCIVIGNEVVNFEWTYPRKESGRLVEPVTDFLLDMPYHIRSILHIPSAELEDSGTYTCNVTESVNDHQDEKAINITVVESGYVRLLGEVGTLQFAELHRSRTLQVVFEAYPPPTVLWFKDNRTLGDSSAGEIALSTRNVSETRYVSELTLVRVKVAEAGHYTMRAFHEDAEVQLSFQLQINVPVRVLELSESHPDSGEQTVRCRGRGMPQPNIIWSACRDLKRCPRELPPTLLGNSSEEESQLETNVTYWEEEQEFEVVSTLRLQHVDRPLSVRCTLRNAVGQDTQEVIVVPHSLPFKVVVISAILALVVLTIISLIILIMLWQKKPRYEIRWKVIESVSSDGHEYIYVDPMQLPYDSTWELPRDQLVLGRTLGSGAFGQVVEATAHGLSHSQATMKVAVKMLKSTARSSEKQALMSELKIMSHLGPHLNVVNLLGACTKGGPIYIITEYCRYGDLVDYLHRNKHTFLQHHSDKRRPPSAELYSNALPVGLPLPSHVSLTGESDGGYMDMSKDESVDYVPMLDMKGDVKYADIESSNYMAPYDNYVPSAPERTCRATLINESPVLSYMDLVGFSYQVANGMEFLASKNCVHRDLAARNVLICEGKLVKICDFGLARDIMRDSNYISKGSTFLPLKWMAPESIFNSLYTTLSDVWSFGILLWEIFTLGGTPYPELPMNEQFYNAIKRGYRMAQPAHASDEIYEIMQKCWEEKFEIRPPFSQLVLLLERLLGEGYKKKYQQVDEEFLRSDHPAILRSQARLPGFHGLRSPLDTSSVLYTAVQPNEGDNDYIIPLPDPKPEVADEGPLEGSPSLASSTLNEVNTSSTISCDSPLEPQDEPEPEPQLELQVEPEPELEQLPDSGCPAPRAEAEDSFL
Method in brief: as §1

CSF1R [2] = molecular target: T1, CSF1R; test: HEK293 CSF1R phosphorylation MSD assay; assay type: cell-based; set-up: expressed in transfected cells; host or cells: HEK293; conditions: HEK293 cells, M-CSF stimulated CSF1R phosphorylation, MSD; read-out: HEK293 pCSF1R M-CSF MSD:IC50
Method in brief: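 Ligand-induced CSF1R autophosphorylation was measured by MSD sandwich assay: CSF1R-FKBP from lysates captured via FK506, anti-phosphotyrosine readout. Cells were exposed to compound for 2 h (9-point, half-log, 0.5% DMSO) before 5 min 50 ng/mL M-CSF. Reported IC50 is the mean of duplicate-plate IC50s relative to DMSO control.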

T1 sequence (P07333 20-972): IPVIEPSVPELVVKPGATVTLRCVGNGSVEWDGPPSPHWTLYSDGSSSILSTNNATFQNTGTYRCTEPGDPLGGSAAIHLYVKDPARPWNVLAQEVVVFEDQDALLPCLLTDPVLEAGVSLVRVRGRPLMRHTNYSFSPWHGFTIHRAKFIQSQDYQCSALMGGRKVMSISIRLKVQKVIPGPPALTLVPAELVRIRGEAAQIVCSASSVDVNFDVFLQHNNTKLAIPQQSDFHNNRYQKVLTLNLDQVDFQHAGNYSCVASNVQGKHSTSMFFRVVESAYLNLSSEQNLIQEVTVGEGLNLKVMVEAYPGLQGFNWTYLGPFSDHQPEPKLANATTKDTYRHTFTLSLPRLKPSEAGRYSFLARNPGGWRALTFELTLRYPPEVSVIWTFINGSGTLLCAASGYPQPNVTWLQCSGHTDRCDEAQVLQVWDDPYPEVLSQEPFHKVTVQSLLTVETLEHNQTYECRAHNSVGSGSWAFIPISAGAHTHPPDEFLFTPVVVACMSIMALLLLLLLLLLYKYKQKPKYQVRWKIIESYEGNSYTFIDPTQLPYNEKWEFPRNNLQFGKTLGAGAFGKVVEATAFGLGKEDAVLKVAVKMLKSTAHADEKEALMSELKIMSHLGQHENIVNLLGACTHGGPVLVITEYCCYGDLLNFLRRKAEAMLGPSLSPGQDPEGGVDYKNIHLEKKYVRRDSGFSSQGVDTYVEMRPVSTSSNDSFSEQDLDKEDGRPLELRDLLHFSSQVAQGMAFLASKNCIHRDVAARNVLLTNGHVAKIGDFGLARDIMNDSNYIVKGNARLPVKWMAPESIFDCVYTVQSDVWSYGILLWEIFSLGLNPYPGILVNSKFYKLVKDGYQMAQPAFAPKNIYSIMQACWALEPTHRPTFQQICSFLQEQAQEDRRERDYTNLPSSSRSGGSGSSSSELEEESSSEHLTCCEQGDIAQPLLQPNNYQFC

| Kd (CSF1R [1]) [nM] | Kd (PDGFRβ) [nM] | IC50 (CSF1R [2]) [nM] | SMILES |
| --- | --- | --- | --- |
| ≤ 5 | ≤ 50 | ≤ 50 | Oc1ccc2c(c1)ncn2Cc1ccc2nc(N[C@@H]3CCCC[C@H]3O)sc2c1 [Example 147, 1-((2-(((1R,2R)-2-hydroxycyclohexyl)amino)benzo[d]thiazol-6-yl)methyl)-1H-benzo[d]imidazol-5-ol] |
| ≤ 5 | 50 to 500 | 50 to 200 | O[C@@H]1CCCC[C@H]1Nc1nc2ccc(Cn3cnc4cc(F)cc(F)c43)cc2s1 [Example 148, (1R,2R)-2-((6-((5,7-difluoro-1H-benzo[d]imidazol-1-yl)methyl)benzo[d]thiazol-2-yl)amino)cyclohexanol] |
| ≤ 5 | ≤ 50 | ≤ 50 | O[C@@H]1CCCC[C@H]1Nc1nc2ccc(Cn3cnc4cc(-n5cccn5)cnc43)cc2s1 [Example 141, (1R,2R)-2-((6-((6-(1H-pyrazol-1-yl)-3H-imidazo[4,5-b]pyridine-3-yl)methyl)benzo[d]thiazol-2-yl)amino)cyclohexanol] |
| 5 to 20 | 50 to 500 | 200 to 500 | O[C@@H]1CCCC[C@H]1Nc1nc2ccc(Cn3cnc4cc(F)c(F)cc43)cc2s1 [Example 128, (1R,2R)-2-((6-((5,6-difluoro-1H-benzo[d]imidazol-1-yl)methyl)benzo[d]thiazol-2-yl)amino)cyclohexanol] |
| ≤ 5 | ≤ 50 | ≤ 50 | O[C@@H]1CCCC[C@H]1Nc1nc2ccc(Cc3cnc4cccnn34)cc2o1 [Example 142, (1R,2R)-2-((6-(imidazo[1,2-b]pyridazin-3-ylmethyl)benzo[d]oxazol-2-yl)amino)cyclohexanol] |
| 5 to 20 | 50 to 500 | 50 to 200 | CNC(=O)c1ccc2c(c1)ncn2Cc1ccc2nc(N[C@@H]3CCCC[C@H]3O)sc2c1 [Example 173, 1-((2-(((1R,2R)-2-hydroxycyclohexyl)amino)benzo[d]thiazol-6-yl)methyl)-N-methyl-1H-benzo[d]imidazole-5-carboxamide] |
| 5 to 20 | ≤ 50 | ≤ 50 | O[C@@H]1[C@H](O)CCC[C@H]1Nc1nc2ccc(Cc3cnc4cc(-n5cccn5)ccn34)cc2s1 [Example 229, (1R,2S,3R)-3-((6-((7-(1H-pyrazol-1-yl)imidazo[1,2-a]pyridin-3-yl)methyl)benzo[d]thiazol-2-yl)amino)cyclohexane-1,2-diol] |
| 20 to 50 | 50 to 500 | 200 to 500 | N#Cc1cc2ncn(Cc3ccc4nc(N[C@@H]5CCCC[C@H]5O)sc4c3)c2nc1C#N [Example 139, 3-((2-(((1R,2R)-2-hydroxycyclohexyl)amino)benzo[d]thiazol-6-yl)methyl)-3H-imidazo[4,5-b]pyridine-5,6-dicarbonitrile] |
| > 50 | 50 to 500 | > 500 | O[C@H]1CC[C@H](Nc2nc3ccc(Cn4cnc5cc(F)cnc54)cc3s2)CC1 [Example 163, trans-4-((6-((6-fluoro-3H-imidazo[4,5-b]pyridin-3-yl)methyl)benzo[d]thiazol-2-yl)amino)cyclohexanol] |
| 5 to 20 | 50 to 500 | 50 to 200 | C=C(c1ccc2c(c1)ncn2Cc1ccc2nc(N[C@@H]3CCCC[C@H]3O)sc2c1)C(F)(F)F [Example 175, (1R,2R)-2-((6-((5-(3,3,3-trifluoroprop-1-en-2-yl)-1H-benzo[d]imidazol-1-yl)methyl)benzo[d]thiazol-2-yl)amino)cyclohexanol] |
| ≤ 5 | ≤ 50 | ≤ 50 | O[C@@H]1CCCC[C@H]1Nc1nc2ccc(Cn3cnc4cc(-n5ccnc5)ccc43)cc2s1 [Example 226, (1R,2R)-2-((6-((5-(1H-imidazol-1-yl)-1H-benzo[d]imidazol-1-yl)methyl)benzo[d]thiazol-2-yl)amino)cyclohexanol] |
| 5 to 20 | 50 to 500 | ≤ 50 | COCCOc1ccn2c(Cc3ccc4nc(N[C@@H]5CCCC[C@H]5O)sc4c3)cnc2c1 [Example 153, (1R,2R)-2-((6-((7-(2-methoxyethoxy)imidazo[1,2-a]pyridin-3-yl)methyl)benzo[d]thiazol-2-yl)amino)cyclohexanol] |
| 5 to 20 | 500 to 2000 | 50 to 200 | O[C@@H]1CCCC[C@H]1Nc1nc2cc(F)c(Cn3cnc4cccnc43)cc2s1 [Example 154, (1R,2R)-2-((6-((3H-imidazo[4,5-b]pyridin-3-yl)methyl)-5-fluorobenzo[d]thiazol-2-yl)amino)cyclohexanol] |
| 5 to 20 | 50 to 500 | ≤ 50 | COc1nc2c(cc1C#N)ncn2Cc1ccc2nc(N[C@@H]3CCCC[C@H]3O)sc2c1 [Example 126, 3-((2-(((1R,2R)-2-hydroxycyclohexyl)amino)benzo[d]thiazol-6-yl)methyl)-5-methoxy-3H-imidazo[4,5-b]pyridine-6-carbonitrile] |
| ≤ 5 | 50 to 500 | 50 to 200 | COc1ccc2ncc(Cc3ccc4nc(N[C@@H]5CCCC[C@H]5O)sc4c3)n2n1 [Example 150, (1R,2R)-2-((6-((6-methoxyimidazo[1,2-b]pyridazin-3-yl)methyl)benzo[d]thiazol-2-yl)amino)cyclohexanol] |
| ≤ 5 | ≤ 50 | ≤ 50 | N#Cc1ccc2ncc(Cc3ccc4nc(N[C@@H]5CCCC[C@H]5O)sc4c3)n2n1 [Example 221, 3-((2-(((1R,2R)-2-hydroxycyclohexyl)amino)benzo[d]thiazol-6-yl)methyl)imidazo[1,2-b]pyridazine-6-carbonitrile] |
| 5 to 20 | 50 to 500 | 50 to 200 | O[C@@H]1CCCC[C@H]1Nc1nc2ccc(Cc3cnc4cnccn34)cc2s1 [Example 125, (1R,2R)-2-((6-(imidazo[1,2-a]pyrazin-3-ylmethyl)benzo[d]thiazol-2-yl)amino)cyclohexanol] |
| ≤ 5 | ≤ 50 | ≤ 50 | O[C@@H]1[C@H](O)CCC[C@H]1Nc1nc2ccc(Cn3cnc4cc(OC5COC5)ccc43)cc2s1 [Example 233, (1R,2S,3R)-3-((6-((5-(oxetan-3-yloxy)-1H-benzo[d]imidazol-1-yl)methyl)benzo[d]thiazol-2-yl)amino)cyclohexane-1,2-diol] |
| 5 to 20 | ≤ 50 | ≤ 50 | Cn1nnnc1-c1cnc2c(c1)ncn2Cc1ccc2nc(N[C@@H]3CCCC[C@H]3O)sc2c1 [Example 134, (1R,2R)-2-((6-((6-(1-methyl-1H-tetrazol-5-yl)-3H-imidazo[4,5-b]pyridin-3-yl)methyl)benzo[d]thiazol-2-yl)amino)cyclohexanol] |
| ≤ 5 | 50 to 500 | ≤ 50 | CC(=O)c1ccc2c(c1)ncn2Cc1ccc2nc(N[C@@H]3CCCC[C@H]3O)sc2c1 [Example 110, 1-(1-((2-(((1R,2R)-2-hydroxycyclohexyl)amino)benzo[d]thiazol-6-yl)methyl)-1H-benzo[d]imidazol-5-yl)ethanone] |
| 5 to 20 | ≤ 50 | ≤ 50 | O[C@@H]1CCCC[C@H]1Nc1nc2ccc(Cn3cnc4cc(I)cnc43)cc2s1 [Example 146, (1R,2R)-2-((6-((6-iodo-3H-imidazo[4,5-b]pyridin-3-yl)methyl)benzo[d]thiazol-2-yl)amino)cyclohexanol] |
| 5 to 20 | 50 to 500 | 50 to 200 | C#Cc1ccc2ncn(Cc3ccc4nc(N[C@@H]5CCCC[C@H]5O)sc4c3)c2c1 [Example 122, (1R,2R)-2-((6-((6-ethynyl-1H-benzo[d]imidazol-1-yl)methyl)benzo[d]thiazol-2-yl)amino)cyclohexanol] |
| 5 to 20 | 500 to 2000 | > 500 | O[C@@H]1CCCC[C@H]1Nc1nc2ccc(Cn3cnc4cccnc43)c(F)c2s1 [Example 164, (1R,2R)-2-((6-((3H-imidazo[4,5-b]pyridin-3-yl)methyl)-7-fluorobenzo[d]thiazol-2-yl)amino)cyclohexanol] |
| 5 to 20 | 50 to 500 | > 500 | N#Cc1ccn2c(Cc3ccc4nc(N[C@@H]5CCCC[C@H]5O)sc4c3)cnc2c1 [Example 117, 3-((2-(((1R,2R)-2-hydroxycyclohexyl)amino)benzo[d]thiazol-6-yl)methyl)imidazo[1,2-a]pyridine-7-carbonitrile] |
| 5 to 20 | 50 to 500 | ≤ 50 | Cn1nnc(-c2ccc3c(c2)ncn3Cc2ccc3nc(N[C@@H]4CCCC[C@H]4O)sc3c2)n1 [Example 227, (1R,2R)-2-((6-((5-(2-methyl-2H-tetrazol-5-yl)-1H-benzo[d]imidazol-1-yl)methyl)benzo[d]thiazol-2-yl)amino)cyclohexanol] |
| 5 to 20 | > 2000 | > 500 | O[C@@H]1CCCC[C@H]1Nc1nc2c(Br)cc(Cn3cnc4cccnc43)cc2s1 [Example 166, (1R,2R)-2-((6-((3H-imidazo[4,5-b]pyridin-3-yl)methyl)-4-bromobenzo[d]thiazol-2-yl)amino)cyclohexanol] |
| 5 to 20 | ≤ 50 | 200 to 500 | O[C@@H]1CCCC[C@H]1Nc1nc2ccc(Cn3cnc4cc(OC(F)(F)F)ccc43)cc2s1 [Example 149, (1R,2R)-2-((6-((5-(trifluoromethoxy)-1H-benzo[d]imidazol-1-yl)methyl)benzo[d]thiazol-2-yl)amino)cyclohexanol] |
| 5 to 20 | 50 to 500 | 50 to 200 | C#Cc1ccc2c(c1)ncn2Cc1ccc2nc(N[C@@H]3CCCC[C@H]3O)sc2c1 [Example 121, (1R,2R)-2-((6-((5-ethynyl-1H-benzo[d]imidazol-1-yl)methyl)benzo[d]thiazol-2-yl)amino)cyclohexanol] |

Source: patent US9938261B2, “Heterocyclic compounds and methods of use thereof” (AMBIT BIOSCIENCES CORPORATION, priority 2011, dated 2018)
